Where two headings read alike, the source gives them in different places. Blank lines part the entries; values can stand above or below the molecule they belong to.
What was measured:
[1] = molecular target: T1, ATRIA (Cavia porcellus, UniProt H0W3H1); experiment: In vitro potency (pA2), beta-blocking, atria; assay type: cell-based
T1 construct: ATRIA; from tissue
Procedure: (§1) The in vitro potency (pA2), in vivo potency and duration of action (DOA) of the compounds of the present invention are recorded in Tables 2 to 4. These pharmacological activities were determined using the methods described in U.S. patent 4,582,855 issued Apr.

[2] = tested on: beta-blocking effects; experiment: In vivo beta-blocking potency and duration of action (DOA); conditions: Tables 2 and 4
Procedure: as §1

[3] = tested on: isoproterenol-induced changes in heart rate or diastolic blood pressure; experiment: Effect on systemic beta-blockade upon topical administration (isoproterenol-induced changes in heart rate or diastolic blood pressure); assay type: in vivo, Mongrel dogs; conditions: for Diastolic blood pressure response to isoproterenol: from-to; for Diastolic blood pressure (DBP) / Heart rate (HR): Table 1, 0.5%; for Summary: BP / Summary: BP change / Summary: HR change: Table 1 summary; for Summary: BP: from ISO only to end of experiment; for Summary: BP change / Summary: HR change: given as "down"
Procedure: Mongrel dogs were anesthetized and control readings were made at -45 and -30 minutes. Following the -30 minute reading, an infusion of isoproterenol (0.5 μg/kg/min) was begun and maintained during the course of the experiment. Two readings of pretreatment isoproterenol responses were made at […] and at zero minutes.
At zero minutes, a 50 μL sample of test compound was administered topically. […] Heart rate was obtained directly from the strip chart recording.

[4] = Ocular bioavailability in rabbits; assay type: in vivo, New Zealand White Rabbits; conditions: for Absorption across the cornea: 0.25% Timolol or 0.5% compound 1, topical; for Area under the concentration time curve (AUC0-240'), AH / Area under the concentration time curve (AUC0-240'), I-CBC / Area under the concentration time curve (AUC0-240'), cornea: 0-240 min; for Tmax: rabbit, topical or ocular
Procedure: The ocular bioavailability of Timolol and compound 1 (monopivaloyl ester prodrug of compound 2) was evaluated in New Zealand White Rabbits. Fifty μL of a solution of 0.25% Timolol or 0.5% compound 1 (both in the same vehicle) were administered onto the cornea of both eyes of 48 rabbits (24 rabbits/compound). At 5, 15, 30, 60, 120, 180, 240, and 360 minutes after dosing, 3 rabbits (6 eyes)/compound were killed. The cornea, aqueous humor (AH), iris-ciliary body complex (I-CBC) were quickly removed from the eyes, weighed and processed to determine tissue levels of Timolol or compound 1 and compound 2.

[5] = Table 3, atria, read-out: pA2 ATRIA (converted)
[6] = Tables 2 and 4, read-out: In-vitro potency pA2 (converted)
[7] = 50 μL, 0.25% solution, single topical application
[8] = 15 min post-treatment, isoproterenol infusion
[9] = 30 min post-treatment, isoproterenol infusion
[10] = 45 min post-treatment, isoproterenol infusion
[11] = 60 min post-treatment (dose), isoproterenol infusion
[12] = 75 min post-treatment, isoproterenol infusion
[13] = 90 min post-treatment, isoproterenol infusion
[14] = 105 min post-treatment, isoproterenol infusion
[15] = 120 min post-treatment (dose), isoproterenol infusion
[16] = 135 min post-treatment, isoproterenol infusion
[17] = 150 min post-treatment, isoproterenol infusion
[18] = 165 min post-treatment, isoproterenol infusion
[19] = 180 min post-treatment, isoproterenol infusion
[20] = AH, 0.25% Timolol or 0.5% compound 1
[21] = I-CBC, 0.25% Timolol or 0.5% compound 1
[22] = cornea, 0.25% Timolol or 0.5% compound 1
[23] = aqueous humor, AH, 0.25% Timolol or 0.5% compound 1, read-out: Time of peak level in aqueous humor (AH) (converted)
[24] = cornea, 0.25% Timolol or 0.5% compound 1, read-out: Time of peak level in cornea (converted)
[25] = 50 μL, 0.25% solution, single or repeated topical applications

T1 sequence (H0W3H1 1-470): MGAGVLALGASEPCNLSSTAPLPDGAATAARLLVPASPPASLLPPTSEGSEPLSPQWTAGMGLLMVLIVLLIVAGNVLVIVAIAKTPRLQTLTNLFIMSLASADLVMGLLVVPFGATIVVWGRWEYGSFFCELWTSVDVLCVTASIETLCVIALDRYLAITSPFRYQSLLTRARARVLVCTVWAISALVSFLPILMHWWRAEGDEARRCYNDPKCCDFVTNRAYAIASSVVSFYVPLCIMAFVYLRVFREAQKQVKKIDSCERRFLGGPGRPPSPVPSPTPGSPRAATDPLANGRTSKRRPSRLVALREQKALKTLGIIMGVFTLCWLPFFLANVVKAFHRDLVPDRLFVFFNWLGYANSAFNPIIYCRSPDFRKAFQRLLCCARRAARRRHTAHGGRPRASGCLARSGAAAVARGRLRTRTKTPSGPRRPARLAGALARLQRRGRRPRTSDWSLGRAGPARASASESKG

Kb [1, 5]: 79.4 nM
SMILES: CC(C)C(=O)NCC(C)(C)NCC(O)COC(=O)c1cc(O)c(O)cc1N (centres unmarked)

Kb [1, 6]: 1.58 nM
SMILES: Cc1cc(O)c(O)cc1C(=O)OCC(O)CNC(C)(C)CNC(=O)C1CCOC1 (centres unmarked) [drawing 25]
DOA (duration of action) [2]: 49 min

Area under the concentration time curve (AUC0-240'), AH [4, 20]: 9,022 ng/100 μL/min
Peak level in aqueous humor (AH) [4, 20]: 131 ng/100 μL
Area under the concentration time curve (AUC0-240'), I-CBC [4, 21]: 533 ng/50 mg/min
Peak level in iris-ciliary body complex (I-CBC) ([4]; I-CBC, 0.25% Timolol): 58 ng/50 mg
Area under the concentration time curve (AUC0-240'), cornea [4, 22]: 68,293 ng/50 mg/min
Peak cornea level ([4]; cornea, 50 μL onto cornea, 0.25% Timolol or 0.5% compound 1): 770 ng/50 mg
Tmax [4, 23]: 30 min
Tmax ([4]; iris-ciliary body, I-CBC, 0.25% Timolol, read-out: Time of peak level in I-CBC (converted)): 30 min
Tmax [4, 24]: 5 min
SMILES: CC(C)(C)NC[C@H](O)COc1nsnc1N1CCOCC1 [Timolol, reference compound]
Antagonism of diastolic blood pressure response to isoproterenol [3, 7]: long lasting antagonism
Effect on heart rate response to isoproterenol [3, 7]: significant inhibitory effect
Diastolic blood pressure response to isoproterenol [3, 7]: 72-107 mmHg
Diastolic blood pressure (DBP) ([3]; 0 min, ISO only): 72 mmHg
Heart rate (HR) ([3]; 0 min, ISO only): 197 bpm
Diastolic blood pressure (DBP) [3, 8]: 93 mmHg
Heart rate (HR) [3, 8]: 175 bpm
Diastolic blood pressure (DBP) [3, 9]: 94 mmHg
Heart rate (HR) [3, 9]: 158 bpm
Diastolic blood pressure (DBP) [3, 10]: 96 mmHg
Heart rate (HR) [3, 10]: 155 bpm
Diastolic blood pressure (DBP) [3, 11]: 99 mmHg
Heart rate (HR) [3, 11]: 157 bpm
Diastolic blood pressure (DBP) [3, 12]: 102 mmHg
Heart rate (HR) [3, 12]: 157 bpm
Diastolic blood pressure (DBP) [3, 13]: 103 mmHg
Heart rate (HR) [3, 13]: 152 bpm
Diastolic blood pressure (DBP) [3, 14]: 104 mmHg
Heart rate (HR) [3, 14]: 153 bpm
Diastolic blood pressure (DBP) [3, 15]: 105 mmHg
Heart rate (HR) [3, 15]: 157 bpm
Diastolic blood pressure (DBP) [3, 16]: 107 mmHg
Heart rate (HR) [3, 16]: 154 bpm
Diastolic blood pressure (DBP) [3, 17]: 107 mmHg
Heart rate (HR) [3, 17]: 153 bpm
Diastolic blood pressure (DBP) [3, 18]: 105 mmHg
Heart rate (HR) [3, 18]: 153 bpm
Diastolic blood pressure (DBP) [3, 19]: 107 mmHg
Heart rate (HR) [3, 19]: 159 bpm
Heart rate (HR) ([3]; -30 min, baseline): 144 bpm
Summary: BP [3]: 71-107 mmHg
Summary: BP change [3]: 35 mmHg
Summary: HR change [3]: 38 bpm
Systemic beta-blockade ([3]; four topical applications, 50 μL, 0.25% solution, 60 minute intervals): prolonged systemic beta-blockade
Absorption across the cornea [4]: rapidly absorbed across the cornea into the AH and I-CBC

Kb [1, 5]: 20 nM
SMILES: Cc1cc(O)c(O)cc1C(=O)OCC(O)CNC(C)(C)CNC(=O)c1ccccc1 (centres unmarked)

Absorption across the cornea [4]: rapidly absorbed across the cornea
AUC in AH relative to AUC of Timolol in AH ([4]; 0.5% compound 1 vs 0.25% Timolol, greater than Timolol): 3 ×
Detectability in I-CBC ([4]; I-CBC, 0.5% compound 1): not detectable
Tmax [4, 23]: 30 min
Tmax [4, 24]: 5 min
SMILES: Cc1cc(O)c(O)cc1C(=O)OCC(CNC(C)(C)CNC(=O)C1CCOC1)OC(=O)C(C)(C)C (centres unmarked) [Compound 1]
Effect on diastolic blood pressure response to isoproterenol ([3]; 50 μL at 0.5 or 1.0% solution): without any significant effect
Systemic beta-blockade of isoproterenol-induced increase in heart rate ([3]; 50 μL at 0.5 or 1.0% solution): no significant systemic beta-blockade
Diastolic blood pressure response to isoproterenol ([3]; 50 μL at 0.5 or 1.0% solution): 58-63 mmHg
Effect on diastolic blood pressure response to isoproterenol [3, 25]: no effect
Effect on heart rate response to isoproterenol [3, 25]: no effect
Diastolic blood pressure (DBP) ([3]; 0 min, ISO only): 58 mmHg
Heart rate (HR) ([3]; 0 min, ISO only): 199 bpm
Diastolic blood pressure (DBP) [3, 8]: 56 mmHg
Heart rate (HR) [3, 8]: 195 bpm
Diastolic blood pressure (DBP) [3, 9]: 55 mmHg
Heart rate (HR) [3, 9]: 192 bpm
Diastolic blood pressure (DBP) [3, 10]: 54 mmHg
Heart rate (HR) [3, 10]: 188 bpm
Diastolic blood pressure (DBP) [3, 11]: 55 mmHg
Heart rate (HR) [3, 11]: 189 bpm
Diastolic blood pressure (DBP) [3, 12]: 55 mmHg
Heart rate (HR) [3, 12]: 189 bpm
Diastolic blood pressure (DBP) [3, 13]: 56 mmHg
Heart rate (HR) [3, 13]: 189 bpm
Diastolic blood pressure (DBP) [3, 14]: 57 mmHg
Heart rate (HR) [3, 14]: 190 bpm
Diastolic blood pressure (DBP) [3, 15]: 59 mmHg
Heart rate (HR) [3, 15]: 192 bpm
Diastolic blood pressure (DBP) [3, 16]: 61 mmHg
Heart rate (HR) [3, 16]: 192 bpm
Diastolic blood pressure (DBP) [3, 17]: 60 mmHg
Heart rate (HR) [3, 17]: 192 bpm
Diastolic blood pressure (DBP) [3, 18]: 60 mmHg
Heart rate (HR) [3, 18]: 192 bpm
Diastolic blood pressure (DBP) [3, 19]: 63 mmHg
Heart rate (HR) [3, 19]: 193 bpm
Diastolic blood pressure (DBP) ([3]; -30 min, baseline): 87 mmHg
Heart rate (HR) ([3]; -30 min, baseline): 143 bpm
Summary: BP [3]: 58-63 mmHg
Summary: BP change [3]: 5 mmHg
Summary: HR change [3]: 6 bpm
Systemic beta-blocking activity as compared to Timolol ([3]; conclusion in words): has systemic beta-blocking activity as compared to Timolol
Selectivity of peripheral effects ([3]; high concentration, unlike Timolol): selective for beta-1 (heart rate) responses
Metabolism of compound 1 to compound 2 ([4]; 0.5% compound 1, topical): rapid metabolism of compound 1 to compound 2

Kb [1, 6]: 2 nM
SMILES: Cc1cc(O)c(O)cc1C(=O)OCC(O)CNC(C)(C)CNC(=O)N1CCOCC1 (centres unmarked)
DOA (duration of action) [2]: 60 min

The next lines start with the molecule.

SMILES: COc1ccccc1C(=O)NCC(C)(C)NCC(O)COC(=O)c1cc(O)c(O)cc1C (centres unmarked)
Kb [1, 5]: 398 nM

SMILES: Cc1cc(O)c(O)cc1C(=O)OCC(O)CNC(C)(C)CNC(=O)Cc1ccccc1 (centres unmarked)
Kb [1, 5]: 100 nM

SMILES: Cc1cc(O)c(O)cc1C(=O)OCC(O)CNC(C)(C)CNC(N)=O (centres unmarked) [Me NH2]
Kb [1, 5]: 1.26 nM

SMILES: Cc1cc(O)c(O)cc1C(=O)OCC(O)CNC(C)(C)CNC(=O)C1CCOCC1 (centres unmarked)
Kb [1, 6]: 5.01 nM
DOA (duration of action) [2]: 26 min

SMILES: Cc1cc(O)c(O)cc1C(=O)OCC(O)CNC(C)(C)CNC(=O)C(C)C (centres unmarked)
Kb [1, 6]: 6.31 nM
DOA (duration of action) [2]: 42 min

SMILES: CCOc1cc(O)c(O)cc1C(=O)OCC(O)CNC(C)(C)CNC(=O)C(C)C (centres unmarked) [OEt]
DOA (duration of action) [2]: 22 min

SMILES: Cc1cc(O)c(O)cc1C(=O)OCC(O)CNC(C)(C)CNC(=O)C1CCOC1 (centres unmarked) [Compound 2]
Area under the concentration time curve (AUC0-240'), AH [4, 20]: 27,377 ng/100 μL/min
Area under the concentration time curve (AUC0-240'), I-CBC [4, 21]: 2,981 ng/50 mg/min
Area under the concentration time curve (AUC0-240'), cornea [4, 22]: 95,789 ng/50 mg/min
Stability in rabbit ocular tissues ([4]; rabbit ocular tissues): stable in rabbit ocular tissues

SMILES: COc1cc(O)c(O)cc1C(=O)OCC(O)CNC(C)(C)CNC(=O)C(C)C (centres unmarked) [OMe]
DOA (duration of action) [2]: 30 min

Source: patent US4966914A, “Oculoselective beta-blockers as antiglaucoma agents” (E. I. Du Pont de Nemours and Company, priority 1988, dated 1990)
